Among the data in patent US10457675B2, “Histone deacetylase inhibitors and compositions and methods of use thereof” (CHDI Foundation, Inc., priority 2014, dated 2019) are IC50 values, retold here.

A value given as a limit tells only on which side of the number the result lay.

For test [1], the system named is cellular histone deacetylase enzymatic activity in Jurkat E6-1 cells. Put plainly: Cell (Lys-TFA): cellular HDAC activity in Jurkat E6-1 cells with Boc-Lys(Tfa)-AMC. It counts as cell-based. To be noted: Boc-Lys(Tfa)-AMC substrate. As to the method:
The potency of the compounds is quantified by measuring the cellular histone deacetylase enzymatic activity using the fluorogenic substrate, Boc-Lys(Tfa)-AMC. After penetration in Jurkat E6-1 cells, the substrate is deacetylated to Boc-Lys-AMC. After cell lysis and cleavage by trypsin, the fluorophore AMC is released from the deacetylated substrate only. The fluorescence of the sample is directly related to the histone deacetylase activity in the sample.
Jurkat E6.1 cells are cultured according to standard cell culture protocols in Jurkat E6.1 Growth Media (RPMI without phenol red, 10% FBS, 10 mM HEPES, and 1 mM Sodium Pyruvate). Jurkat E6.1 cells are counted using a Coulter Counter and resuspended in Jurkat E6.1 growth media at a concentration of 75,000 cells/35 μL. 35 μL or 75,000 cells is seeded into Greiner microtitre assay plates. The plates are then incubated at 37° C. and 5% CO2 while other assay components are being prepared.
Stocks of 70 μL aliquots of the 10 mM compound in DMSO are prepared and stored at −20° C. […]
5 μL of each solution of 1:20 diluted compound from above is transferred to the Greiner microtitre assay plates with 75,000 cells/well using the Bravo. […] Finally the top read fluorescence (Excitation: 355 nm, Emission: 460 nm) is measured using PerkinElmer EnVision.

In test [2] the test system is cellular HDAC activity (Lys-Ac). The test can be described thus: Cell (Lys-Ac): cellular HDAC activity. The test is classed as cell-based.
Test [3] has as its target Histone Deacetylase 4 (HDAC4) catalytic domain (Homo sapiens (Human), UniProt P56524). Put plainly: Biochemical IC50: HDAC enzymatic activity with fluorogenic substrate Boc-Lys(Tfa)-AMC. As to the method:
The potency of compounds is quantified by measuring the Histone Deacetylase 4 (HDAC4) catalytic domain enzymatic activity using the fluorogenic substrate, Boc-Lys(Tfa)-AMC. The substrate is deacetylated to Boc-Lys-AMC by HDAC4. Cleavage by trypsin results in the release of the fluorophore AMC from the deacetylated substrate. The fluorescence of the sample is directly related to the histone deacetylase activity in the sample.
Stocks of 60 μL aliquots of the 10 mM compound in DMSO are prepared and stored at −20° C. From one stock aliquot of each compound to be tested and the reference compound, a 16-point serial dilution is prepared according to Table 1 using a 125 μL 16-channel Matrix multi-channel pipette (Matrix Technologies Ltd).
2 μL (200×) of each diluted solution and each control (full activity: 100% DMSO alone or full inhibition 1 mM) is stamped into V-bottomed polypropylene 384-well compound plates using either the Bravo (384-well head from Agilent) or 12.5 μL 16-channel Matrix multi-channel pipette (Matrix Technologies Ltd). […]
5 μL of each solution of 1:20 diluted compound from above is transferred to a clear bottomed, black, 384-well assay plate using the Bravo or the Janus (384-well MDT head from Perkin Elmer). […] Finally, the fluorescence is measured (Excitation: 355 nm, Emission: 460 nm) using PerkinElmer EnVision in top read mode.

Sequence of Histone Deacetylase 4 (HDAC4) catalytic domain (P56524 648-1032): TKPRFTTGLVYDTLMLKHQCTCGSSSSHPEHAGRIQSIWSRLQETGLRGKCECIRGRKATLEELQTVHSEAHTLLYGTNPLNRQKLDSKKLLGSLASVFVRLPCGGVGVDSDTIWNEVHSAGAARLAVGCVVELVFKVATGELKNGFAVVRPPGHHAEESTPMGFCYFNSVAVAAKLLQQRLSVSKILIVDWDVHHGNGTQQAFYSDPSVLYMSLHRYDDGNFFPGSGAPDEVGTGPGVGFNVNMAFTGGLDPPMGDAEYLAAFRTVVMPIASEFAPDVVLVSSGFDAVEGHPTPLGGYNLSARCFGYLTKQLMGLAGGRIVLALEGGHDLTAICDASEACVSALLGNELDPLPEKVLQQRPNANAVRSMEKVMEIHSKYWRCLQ

The IC50 is the midpoint of a concentration-inhibition curve. High values mean lower potency, low ones higher potency. On to “5-(3-Fluoro-2-methylphenyl)-1-(4-fluorobenzyl)-N-hydroxy-4,5,6,7-tetrahydro-1H-indazole-5-carboxamide and 5-(3-fluoro-2-methylphenyl)-2-(4-fluorobenzyl)-N-hydroxy-4,5,6,7-tetrahydro-2H-indazole-5-carboxamide [Example 36]”, for which the IC50 in test [1] is 370 nM; in test [2], greater than 50000 nM; in test [3], 600 nM.

For `Cc1c(F)cccc1C1(C(=O)NO)CCc2nc(C3CC3)ncc21` (stereo in doubt) [Example 57, (R)-2-Cyclopropyl-5-(3-fluoro-2-methylphenyl)-N-hydroxy-6,7-dihydro-5H-cyclopenta[d]pyrimidine-5-carboxamide], the 50% inhibitory concentration (IC50) in test [2] is greater than 50000 nM.

As for “5-(3-Fluoro-2-methylphenyl)-N-hydroxy-1-(2,2,2-trifluoroethyl)-4,5,6,7-tetrahydro-1H-indazole-5-carboxamide and 5-(3-fluoro-2-methylphenyl)-N-hydroxy-2-(2,2,2-trifluoroethyl)-4,5,6,7-tetrahydro-2H-indazole-5-carboxamide [Example 35]”, the IC50 was 770 nM in test [1] and greater than 50000 nM in test [2].
